We go through 25 compounds from patent US7928126B2, “Cyanopyridine derivative and use thereof as medicine” (Mitsubishi Tanabe Pharma Corporation, priority 2005, dated 2011).

Holding throughout (assay type): biochemical
The target of one assay is T1, aurora 2 kinase (Homo sapiens, UniProt O14965).
T1 construct: The amplified gene encoding aurora 2 kinase was introduced into Escherichia coli expression vector pET32a; made in house; host or cells: Escherichia coli BL21R (Novagen), vector pET32a
T1 sequence (O14965 1-403): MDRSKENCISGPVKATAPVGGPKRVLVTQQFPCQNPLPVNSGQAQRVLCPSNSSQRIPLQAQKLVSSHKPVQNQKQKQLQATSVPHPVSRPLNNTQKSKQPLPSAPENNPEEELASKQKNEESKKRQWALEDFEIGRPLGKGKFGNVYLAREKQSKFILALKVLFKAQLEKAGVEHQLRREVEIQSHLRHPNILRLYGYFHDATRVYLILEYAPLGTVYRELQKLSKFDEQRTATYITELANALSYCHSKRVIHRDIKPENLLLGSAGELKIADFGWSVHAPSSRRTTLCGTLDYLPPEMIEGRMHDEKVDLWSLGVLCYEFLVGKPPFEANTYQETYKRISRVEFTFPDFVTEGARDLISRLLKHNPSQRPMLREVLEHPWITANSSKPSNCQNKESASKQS
In words: Aurora 2 kinase assay (32P-ATP, peptide substrate LRRASLG). Conditions: room temperature 60 min.

The target of assay [1] is T2, Porcine brain tubulin protein (Sus scrofa, UniProt P02550+P02554).
T2 construct: 3.3 mg/ml Porcine brain tubulin protein: Cytoskeleton; purchased Cytoskeleton; host or cells: porcine brain (tissue-derived)
The assay is described as follows: Tubulin polymerization assay (turbidity at 405 nm). Conditions: 10 μM compound, maximum polymerization rate, 37° C.; read-out: inhibitory rate (%). As to the method:
A tubulin polymerization reaction mixture (50 μL) (80 mM Pipes pH=6.9, 0.5 mM MgCl2, 1 mM EGTA, 1 mM GTP, 3.3 mg/ml Porcine brain tubulin protein: Cytoskeleton, 10 μM compound) was prepared in a 96 well flat bottom plate under ice-cooling. This was placed in a plate reader (IWAKI microplate reader, EZS-ABS) controlled to a temperature of 37° C., whereby a temperature dependent tubulin polymerization reaction was initiated. Since the turbidity of the reaction mixture increases as the tubulin polymerization proceeds, the absorbance at 405 nm was measured every other minute for 30 min to monitor the polymerization reaction. Of the 30 min measures, the three largest differences per min of turbidity (generally those immediately after start of the reaction) were taken, and the average of the three values was calculated and taken as the maximum polymerization rate. Inhibitory percent (%)=(C−T)/C×100 wherein T is the maximum polymerization rate of the reaction mixture containing the compound, and C is the maximum polymerization rate of the reaction mixture without the compound.

The target of another assay is T3, aurora 1 kinase (Homo sapiens, UniProt Q96GD4).
T3 construct: purchased UPSTATE
In words: Aurora 1 kinase assay (32P-ATP, peptide substrate LRRWSLG). The following applies: room temperature 60 min.

pKi: −log10 of the molar value. Structures can show the parent of a compound that is named as a salt. A value given as a limit tells only on which side of the number the result lay.

T3 sequence (Q96GD4 whole entry): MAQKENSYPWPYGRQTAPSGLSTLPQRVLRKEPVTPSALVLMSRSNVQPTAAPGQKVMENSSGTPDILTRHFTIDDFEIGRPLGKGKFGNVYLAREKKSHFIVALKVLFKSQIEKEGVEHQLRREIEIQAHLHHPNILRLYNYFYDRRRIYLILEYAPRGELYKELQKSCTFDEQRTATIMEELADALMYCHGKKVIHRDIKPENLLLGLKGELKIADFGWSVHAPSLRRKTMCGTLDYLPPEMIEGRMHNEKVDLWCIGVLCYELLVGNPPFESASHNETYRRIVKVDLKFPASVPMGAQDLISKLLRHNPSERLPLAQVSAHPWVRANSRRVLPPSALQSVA
T2 sequence (P02550 whole entry): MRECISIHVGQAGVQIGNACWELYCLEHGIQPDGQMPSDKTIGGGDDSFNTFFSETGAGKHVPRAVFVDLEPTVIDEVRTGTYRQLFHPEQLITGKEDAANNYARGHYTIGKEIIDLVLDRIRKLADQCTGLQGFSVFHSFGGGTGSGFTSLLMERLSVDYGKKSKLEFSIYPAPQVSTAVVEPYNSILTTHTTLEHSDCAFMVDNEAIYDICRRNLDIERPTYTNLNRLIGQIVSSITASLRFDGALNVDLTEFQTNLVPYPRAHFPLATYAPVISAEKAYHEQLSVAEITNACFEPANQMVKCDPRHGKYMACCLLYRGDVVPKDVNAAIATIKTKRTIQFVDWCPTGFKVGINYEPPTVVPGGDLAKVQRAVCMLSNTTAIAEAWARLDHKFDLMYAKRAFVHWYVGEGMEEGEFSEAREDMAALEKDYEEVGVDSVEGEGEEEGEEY
T2 sequence (P02554 whole entry): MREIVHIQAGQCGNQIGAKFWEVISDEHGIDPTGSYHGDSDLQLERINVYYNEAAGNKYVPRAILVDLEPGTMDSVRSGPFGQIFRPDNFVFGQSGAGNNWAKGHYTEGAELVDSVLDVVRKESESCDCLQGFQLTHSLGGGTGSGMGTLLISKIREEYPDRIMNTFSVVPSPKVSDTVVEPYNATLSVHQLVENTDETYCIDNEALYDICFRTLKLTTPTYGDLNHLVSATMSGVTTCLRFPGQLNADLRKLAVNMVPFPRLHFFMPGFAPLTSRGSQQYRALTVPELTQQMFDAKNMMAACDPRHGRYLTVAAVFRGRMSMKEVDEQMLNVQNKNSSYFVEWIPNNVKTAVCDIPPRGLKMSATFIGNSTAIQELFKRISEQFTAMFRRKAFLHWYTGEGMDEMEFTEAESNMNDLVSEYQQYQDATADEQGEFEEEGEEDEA

Compound `Cc1cc(Nc2cc(-c3ccccc3)c(C#N)c(NCCOc3ccccc3)n2)n[nH]1` [Example 1, 2-(2-phenoxyethylamino)-6-(5-methyl-1H-pyrazol-3-ylamino)-4-phenylnicotinonitrile] gave a pKi at aurora 2 kinase of 7.72. The inhibition at 10 µM in assay [1] was found to be 51%.
On aurora 2 kinase, `Cc1cc(Nc2cc(C(F)(F)F)c(C#N)c(NCCOc3ccccc3)n2)n[nH]1` [Example 3, 2-(2-phenoxyethylamino)-6-(5-methyl-1H-pyrazol-3-ylamino)-4-trifluoromethylnicotinonitrile] had a pKi of 7.82. The inhibition at 10 µM in assay [1] was determined as 36%.
The compound `COc1ccc(-c2cc(Nc3cc(C)[nH]n3)nc(NCCOc3ccccc3)c2C#N)cc1` [Example 4, 2-(2-phenoxyethylamino)-6-(5-methyl-1H-pyrazol-3-ylamino)-4-(4-methoxyphenyl)nicotinonitrile] gave a negative-log Ki (pKi) on aurora 2 kinase of 7.82. Also, the inhibition at 10 µM in assay [1] was found to be 63%.
Regarding `COc1ccc(OCCNc2nc(Nc3cc(C)[nH]n3)cc(C)c2C#N)cc1` [Example 5, 2-(2-(4-methoxyphenoxy)ethylamino)-6-(5-methyl-1H-pyrazol-3-ylamino)-4-methylnicotinonitrile hydrochloride], the pKi at aurora 2 kinase is 7.59. Also, in assay [1], the inhibition at 10 µM turned out to be 51%.
`Cc1cc(Nc2cc(-c3cccnc3)c(C#N)c(NCCOc3ccccc3)n2)n[nH]1` [Example 6, 2-(2-phenoxyethylamino)-6-(5-methyl-1H-pyrazol-3-ylamino)-4-(pyridin-3-yl)nicotinonitrile]: the pKi at aurora 2 kinase was 8.52. In addition, in assay [1], the inhibition at 10 µM is less than 0%.
As to `Cc1cc(Nc2cc(C)c(C#N)c(NCCOc3ccccn3)n2)n[nH]1` [Example 7, 2-(2-(pyridin-2-yloxy)ethylamino)-6-(5-methyl-1H-pyrazol-3-ylamino)-4-methylnicotinonitrile dihydrochloride], the pKi on aurora 2 kinase is 8.22. For the same compound, the inhibition at 10 µM in assay [1] was found to be 63%.
In turn, `COc1ccccc1OCCNc1nc(Nc2cc(C)[nH]n2)cc(C)c1C#N` [Example 8, 2-(2-(2-methoxyphenoxy)ethylamino)-6-(5-methyl-1H-pyrazol-3-ylamino)-4-methylnicotinonitrile] gave a negative-log Ki (pKi) on aurora 2 kinase of 8.22. Moreover, the inhibition at 10 µM in assay [1] was 42%.
The matching figures for `Cc1cc(Nc2cc(C)c(C#N)c(NCCOc3ccc(F)cc3)n2)n[nH]1` [Example 10, 2-(2-(4-fluorophenoxy)ethylamino)-6-(5-methyl-1H-pyrazol-3-ylamino)-4-methylnicotinonitrile]: 8.52 and 44%.
The matching figures for `Cc1cc(Nc2cc(C)c(C#N)c(NCCOc3ccncc3)n2)n[nH]1` [Example 11, 2-(2-(pyridin-4-yloxy)ethylamino)-6-(5-methyl-1H-pyrazol-3-ylamino)-4-methylnicotinonitrile]: 7.62 and 42%.
On to `Cc1cc(Nc2cc(C)c(C#N)c(NCCOc3ccccc3F)n2)n[nH]1` [Example 13, 2-(2-(2-fluorophenoxy)ethylamino)-6-(5-methyl-1H-pyrazol-3-ylamino)-4-methylnicotinonitrile hydrochloride], for which the pKi at aurora 2 kinase was 8.70; on aurora 1 kinase, no less than 7.00. Besides, the inhibition at 10 µM in assay [1] amounted to 69%.
At aurora 2 kinase, `Cc1cc(Nc2ccc(C#N)c(NCCOc3ccccc3)n2)n[nH]1` [Example 14, 2-(2-phenoxyethylamino)-6-(5-methyl-1H-pyrazol-3-ylamino)nicotinonitrile] had a pKi of 8.52. In addition, in assay [1], the inhibition at 10 µM stood at 55%.
`Cc1cc(Nc2ccc(C#N)c(NCCOc3cccc(F)c3)n2)n[nH]1` [Example 15, 2-(2-(3-fluorophenoxy)ethylamino)-6-(5-methyl-1H-pyrazol-3-ylamino)nicotinonitrile] showed a pKi on aurora 2 kinase of 8.70. Further, the inhibition at 10 µM in assay [1] is 69%.
Regarding `Cc1cc(Nc2cc(C)c(C#N)c(NCCOc3ccc(F)c(Cl)c3)n2)n[nH]1` [Example 16, 2-(2-(3-chloro-4-fluorophenoxy)ethylamino)-6-(5-methyl-1H-pyrazol-3-ylamino)-4-methylnicotinonitrile], the negative logarithm of the Ki (pKi) at aurora 2 kinase was 8.52. For the same compound, the inhibition at 10 µM in assay [1] worked out at 65%.
Take `Cc1cc(Nc2ccc(C#N)c(NCCOc3cccnc3)n2)n[nH]1` [Example 17, 2-(2-(pyridin-3-yloxy)ethylamino)-6-(5-methyl-1H-pyrazol-3-ylamino)nicotinonitrile]: on aurora 2 kinase, the negative logarithm of the Ki (pKi) is 8.70. For the same compound, the inhibition at 10 µM in assay [1] was found to be 67%.
In turn, `Cc1cc(Nc2cc(-c3cccnc3)c(C#N)c(NCCOc3cccc(F)c3)n2)n[nH]1` [Example 18, 2-(2-(3-fluorophenoxy)ethylamino)-6-(5-methyl-1H-pyrazol-3-ylamino)-4-(pyridin-3-yl)nicotinonitrile dihydrochloride] gave a negative-log Ki (pKi) on aurora 2 kinase of 8.70. For the same compound, the inhibition at 10 µM in assay [1] stood at 79%.
Consider `Cc1cc(Nc2ccc(C#N)c(NCCOc3ccccc3F)n2)n[nH]1` [Example 19, 2-(2-(2-fluorophenoxy)ethylamino)-6-(5-methyl-1H-pyrazol-3-ylamino)nicotinonitrile hydrochloride], for which the negative logarithm of the Ki (pKi) on aurora 2 kinase was 9.00. Further, the inhibition at 10 µM in assay [1] came to 59%.
On aurora 2 kinase, `Cc1cc(Nc2cc(C)c(C#N)c(NCCOc3cc(F)cc(F)c3)n2)n[nH]1` [Example 20, 2-(2-(3,5-difluorophenoxy)ethylamino)-6-(5-methyl-1H-pyrazol-3-ylamino)-4-methylnicotinonitrile hydrochloride] gave a pKi of 8.70. In addition, the inhibition at 10 µM in assay [1] stood at 75%.
Consider `Cc1cc(Nc2cc(C)c(C#N)c(NCCOc3ccccc3Cl)n2)n[nH]1` [Example 24, 2-(2-(2-chlorophenoxy)ethylamino)-6-(5-methyl-1H-pyrazol-3-ylamino)-4-methylnicotinonitrile hydrochloride], for which the negative logarithm of the Ki (pKi) on aurora 2 kinase was 9.00. For the same compound, the inhibition at 10 µM in assay [1] was determined as 73%.
With `Cc1cc(Nc2ccc(C#N)c(NCCOc3ccccc3Cl)n2)n[nH]1` [Example 25, 2-(2-(2-chlorophenoxy)ethylamino)-6-(5-methyl-1H-pyrazol-3-ylamino)nicotinonitrile hydrochloride], the pKi at aurora 2 kinase is 8.70; on aurora 1 kinase, no less than 7.00. Further, in assay [1], the inhibition at 10 µM stood at 51%.
For the compound `COc1ccc(-c2cc(Nc3cc(C)[nH]n3)nc(NCCOc3ccccc3Cl)c2C#N)cc1` [Example 26, 2-(2-(2-chlorophenoxy)ethylamino)-6-(5-methyl-1H-pyrazol-3-ylamino)-4-(4-methoxyphenyl)nicotinonitrile hydrochloride], the negative logarithm of the Ki (pKi) at aurora 2 kinase is 7.89. Moreover, the inhibition at 10 µM in assay [1] was found to be 48%.
Turning to `Cc1ccc(OCCNc2nc(Nc3cc(C)[nH]n3)ccc2C#N)cn1` [Example 27, 2-(2-(6-methylpyridin-3-yloxy)ethylamino)-6-(5-methyl-1H-pyrazol-3-ylamino)nicotinonitrile dihydrochloride], the pKi at aurora 2 kinase is 8.52; at aurora 1 kinase, no less than 7.00. The inhibition at 10 µM in assay [1] was determined as 57%.
Turning to `Cc1ccc(OCCNc2nc(Nc3cc(C)[nH]n3)ccc2C#N)c(C)n1` [Example 29, 2-(2-(2,6-dimethylpyridin-3-yloxy)ethylamino)-6-(5-methyl-1H-pyrazol-3-ylamino)nicotinonitrile dihydrochloride], the negative logarithm of the Ki (pKi) on aurora 2 kinase was 7.18. Further, in assay [1], the inhibition at 10 µM is 42%.
For the compound `Cc1cc(Nc2ccc(C#N)c(NCCOc3ccc(OC(F)(F)F)cc3)n2)n[nH]1` [Example 30, 2-(2-(4-(trifluoromethoxy)phenoxy)ethylamino)-6-(5-methyl-1H-pyrazol-3-ylamino)nicotinonitrile], the negative logarithm of the Ki (pKi) on aurora 2 kinase is 7.10. The inhibition at 10 µM in assay [1] came to 34%.
Take `Cc1cc(Nc2cc(C3CC3)n[nH]2)nc(NCCOc2cccnc2)c1C#N` [Example 34, 6-(5-cyclopropyl-1H-pyrazol-3-ylamino)-4-methyl-2-(2-(pyridin-3-yloxy)ethylamino)nicotinonitrile]: the negative logarithm of the Ki (pKi) at aurora 1 kinase was no less than 7.00.
In the case of `Cc1cc(Nc2cc(C(C)C)n[nH]2)nc(NCCOc2cccnc2)c1C#N` [Example 35, 6-(5-isopropyl-1H-pyrazol-3-ylamino)-4-methyl-2-(2-(pyridin-3-yloxy)ethylamino)nicotinonitrile], the negative logarithm of the Ki (pKi) on aurora 1 kinase is no less than 7.00.

As usually defined, the pKi is −log10 of the Ki, conventionally taken in molar units. A high value points to a small Ki.
